In PubChem BioAssay AID264 (DTP/NCI, 2004):
Results filed as inconclusive are left out.

Tested on: nude mice, LX-1 lung xenograft intrarenal, tumor weight T/C
Assay: NCI In Vivo Anticancer Drug Screen. Data for tumor model Human Lung LX-1 Xenograft (intrarenal inoculation) in NU/NU Swiss (nude) mice
Details: endpoint: mean tumor weight change, higher = larger tumour
Method in brief: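 Compound-treated mice carrying transplanted tumors were compared with vehicle-treated controls. Tumor size was the measured end point, and the value is the treated-group measurement divided by the control-group measurement (T/C).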

[1] = dose: 50.0 mg/kg/injection, schedule: Q01DX010 (sc), vehicle: saline with Tween-80
[2] = dose: 100.0 mg/kg/injection, schedule: Q01DX010 (sc), vehicle: saline with Tween-80
[3] = dose: 200.0 mg/kg/injection, schedule: Q01DX010 (sc), vehicle: saline with Tween-80
[4] = dose: 400.0 mg/kg/injection, schedule: Q01DX010 (sc), vehicle: saline with Tween-80
[5] = dose: 300.0 mg/kg/injection, schedule: Q04DX003 (sc), vehicle: saline with Tween-80
[6] = dose: 600.0 mg/kg/injection, schedule: Q04DX003 (sc), vehicle: saline with Tween-80
[7] = dose: 300.0 mg/kg/injection, schedule: Q04DX003 (sc), vehicle: Klucel (hydroxypropylcellulose) (HPC)
[8] = dose: 600.0 mg/kg/injection, schedule: Q04DX003 (sc), vehicle: Klucel (hydroxypropylcellulose) (HPC)
[9] = dose: 1200.0 mg/kg/injection, schedule: Q04DX003 (sc), vehicle: Klucel (hydroxypropylcellulose) (HPC)
[10] = dose: 1200.0 mg/kg/injection, schedule: Q04DX003 (sc), vehicle: saline with Tween-80
[11] = dose: 2400.0 mg/kg/injection, schedule: Q04DX003 (sc), vehicle: saline with Tween-80
[12] = dose: 200.0 mg/kg/injection, schedule: Q04DX003 (sc), vehicle: saline with Tween-80
[13] = dose: 400.0 mg/kg/injection, schedule: Q04DX003 (sc), vehicle: saline with Tween-80
[14] = dose: 800.0 mg/kg/injection, schedule: Q04DX003 (sc), vehicle: saline with Tween-80
[15] = dose: 50.0 mg/kg/injection, schedule: Q01DX010 (sc), vehicle: suspension in saline

For `CCCC(=O)Oc1ccc(/C=N/NC(N)=S)nc1`, the T/C [1] was 91 % of control, the T/C [2] was 110 % of control and the T/C [3] was 40 % of control. The T/C [4] was 15 % of control.

For `Oc1cc2ccccc2c(-c2c(O)c(O)cc3ccccc23)c1O`, the T/C (dose: 75.0 mg/kg/injection, schedule: Q04DX003 (sc), vehicle: saline with Tween-80) was 85 % of control, the T/C (dose: 150.0 mg/kg/injection, schedule: Q04DX003 (sc), vehicle: saline with Tween-80) was 108 % of control and the T/C [5] was 42 % of control. For the same molecule, the T/C [6] was 52 % of control.

For `O=CC(O)C(O)C(O)C(O)C(=O)O.[NH-]C1CCCCC1[NH-].[Pt+2]` (stereo not drawn), the T/C (dose: 9.38 mg/kg/injection, schedule: Q04DX003 (sc), vehicle: suspension in saline) was 39 % of control and the T/C (dose: 18.75 mg/kg/injection, schedule: Q04DX003 (sc), vehicle: suspension in saline) was 46 % of control.

`N=C(N)Sc1ccccn1` was tested, and the T/C (dose: 1.25 mg/kg/injection, schedule: Q01DX010 (sc), vehicle: saline) was 83 % of control, the T/C (dose: 2.5 mg/kg/injection, schedule: Q01DX010 (sc), vehicle: saline) was 72 % of control and the T/C (dose: 5.0 mg/kg/injection, schedule: Q01DX010 (sc), vehicle: saline) was 52 % of control. For the same molecule, the T/C (dose: 10.0 mg/kg/injection, schedule: Q01DX010 (sc), vehicle: saline) was 29 % of control, the T/C (dose: 25.0 mg/kg/injection, schedule: Q01DX010 (sc), vehicle: saline) was 158 % of control and the T/C (dose: 50.0 mg/kg/injection, schedule: Q01DX010 (sc), vehicle: saline) was 167 % of control.

`Cn1cc(C2NC(=O)c3ccccc3N2)c2ccccc21` (stereo not drawn) was tested, and the T/C [7] was 31 % of control, the T/C [8] was 32 % of control and the T/C [9] was -36 % of control.

In the case of `Cc1ccc(NC(=O)Oc2ccc(Br)cc2Br)c([N+](=O)[O-])c1`, the T/C [5] is reported as 61 % of control, the T/C [6] is reported as 98 % of control and the T/C [10] is reported as 93 % of control. For the same molecule, the T/C [11] was 68 % of control.

In the case of `C/C(=N\NC(N)=O)c1cccc(/C(C)=N/NC(N)=O)n1`, the T/C (dose: 100.0 mg/kg/injection, schedule: Q04DX003 (sc), vehicle: saline with Tween-80) is reported as 83 % of control, the T/C [12] is reported as 54 % of control and the T/C [13] is reported as 71 % of control. For the same molecule, the T/C [14] was 89 % of control.

In the case of `C=C1C(=O)C23[C@H](O)C1CC[C@H]2[C@]12COC3(O)[C@@H](O)[C@@H]1C(C)(C)CC[C@@H]2O`, the T/C (dose: 18.75 mg/kg/injection, schedule: Q04DX003 (sc), vehicle: Klucel (hydroxypropylcellulose) (HPC)) is reported as 105 % of control and the T/C (dose: 37.5 mg/kg/injection, schedule: Q04DX003 (sc), vehicle: Klucel (hydroxypropylcellulose) (HPC)) is reported as 49 % of control.

`COc1cc(NCCCCCCCNC(C)C)c2nccc(C)c2c1` was tested, and the T/C (dose: 37.5 mg/kg/injection, schedule: Q04DX003 (sc), vehicle: saline) was 105 % of control and the T/C (dose: 150.0 mg/kg/injection, schedule: Q04DX003 (sc), vehicle: saline) was 87 % of control.

With `NC(=S)N/N=C\c1ncccc1OCc1cccc(N)c1` the T/C [5] was 158 % of control, the T/C [6] was 159 % of control and the T/C [10] was 105 % of control. For the same molecule, the T/C [11] was 96 % of control.

With `COC(=O)[C@@]12OC[C@]34[C@H]([C@@H](O)[C@@H]1O)[C@@]1(C)CC(=O)C(O)=C(C)[C@@H]1C[C@H]3OC(=O)[C@H](OC(=O)/C=C(\C)C(C)C)[C@@H]24` the T/C (dose: 0.25 mg/kg/injection, schedule: Q04DX003 (sc), vehicle: saline + alcohol) was 115 % of control, the T/C (dose: 0.5 mg/kg/injection, schedule: Q01DX010 (sc), vehicle: saline + alcohol) was 101 % of control and the T/C (dose: 0.5 mg/kg/injection, schedule: Q04DX003 (sc), vehicle: saline + alcohol) was 91 % of control. For the same molecule, the T/C (dose: 1.0 mg/kg/injection, schedule: Q04DX003 (sc), vehicle: saline + alcohol) was 114 % of control and the T/C (dose: 2.0 mg/kg/injection, schedule: Q04DX003 (sc), vehicle: saline + alcohol) was 59 % of control.

With `O=c1[nH]cnc2c1ccn2C1OC(CO)C(O)C1O` (stereo not drawn) the T/C (dose: 12.5 mg/kg/injection, schedule: Q04DX003 (sc), vehicle: saline) was 88 % of control and the T/C (dose: 50.0 mg/kg/injection, schedule: Q04DX003 (sc), vehicle: saline) was 47 % of control.

`CCOC(=O)C1(c2ccccc2)C(=O)Oc2ccccc21` (stereo not drawn) was tested, and the T/C [5] was 54 % of control, the T/C [6] was 103 % of control and the T/C [10] was 73 % of control. For the same molecule, the T/C [11] was 74 % of control.

For `Cn1cnc([N+](=O)[O-])c1[Se]c1nc(N)nc2nc[nH]c12`, the T/C (dose: 12.5 mg/kg/injection, schedule: Q01DX010 (sc), vehicle: water) was 63 % of control, the T/C (dose: 25.0 mg/kg/injection, schedule: Q01DX010 (sc), vehicle: water) was 68 % of control and the T/C (dose: 50.0 mg/kg/injection, schedule: Q01DX010 (sc), vehicle: water) was 176 % of control. The T/C (dose: 100.0 mg/kg/injection, schedule: Q01DX010 (sc), vehicle: water) was 68 % of control.

For `O=C(O)CCCCCCCC(=O)O`, the T/C (dose: 150.0 mg/kg/injection, schedule: Q04DX003 (sc), vehicle: distilled water + Tween-80) was 105 % of control, the T/C (dose: 300.0 mg/kg/injection, schedule: Q04DX003 (sc), vehicle: distilled water + Tween-80) was 79 % of control and the T/C (dose: 600.0 mg/kg/injection, schedule: Q04DX003 (sc), vehicle: distilled water + Tween-80) was 60 % of control. For the same molecule, the T/C (dose: 1200.0 mg/kg/injection, schedule: Q04DX003 (sc), vehicle: distilled water + Tween-80) was 50 % of control.

`O=S(=O)(O)O` was tested, and the T/C (dose: 150.0 mg/kg/injection, schedule: Q04DX003 (sc), vehicle: Klucel (hydroxypropylcellulose) (HPC)) was 70 % of control, the T/C [7] was 167 % of control and the T/C [8] was 73 % of control.

In the case of `Ic1ncnc2c1ncn2C1CCCO1` (stereo not drawn), the T/C (dose: 200.0 mg/kg/injection, schedule: Q04DX003 (sc), vehicle: Klucel (hydroxypropylcellulose) (HPC)) is reported as 168 % of control, the T/C (dose: 800.0 mg/kg/injection, schedule: Q04DX003 (sc), vehicle: Klucel (hydroxypropylcellulose) (HPC)) is reported as 107 % of control and the T/C (dose: 1600.0 mg/kg/injection, schedule: Q04DX003 (sc), vehicle: Klucel (hydroxypropylcellulose) (HPC)) is reported as 41 % of control.

For `CN(C)CCCNc1c2ccccc2nc2cccc([N+](=O)[O-])c12`, the T/C (dose: 0.37 mg/kg/injection, schedule: Q04DX003 (sc), vehicle: saline) was 117 % of control, the T/C (dose: 0.75 mg/kg/injection, schedule: Q04DX003 (sc), vehicle: saline) was 100 % of control and the T/C (dose: 1.5 mg/kg/injection, schedule: Q04DX003 (sc), vehicle: saline) was 95 % of control.

In the case of `BrC1c2cccc3cccc(c23)C1Br` (stereo not drawn), the T/C [6] is reported as 155 % of control and the T/C [10] is reported as 96 % of control.

`COc1cc2c(ccc3c4cc(OC)c(OC)cc4c[n+](C)c23)cc1O` was tested, and the T/C (dose: 300.0 mg/kg/injection, schedule: Q04DX003 (sc), vehicle: saline) was 107 % of control, the T/C (dose: 600.0 mg/kg/injection, schedule: Q04DX003 (sc), vehicle: saline) was 79 % of control and the T/C (dose: 1200.0 mg/kg/injection, schedule: Q04DX003 (sc), vehicle: saline) was 46 % of control. For the same molecule, the T/C (dose: 2400.0 mg/kg/injection, schedule: Q04DX003 (sc), vehicle: saline) was 65 % of control.

For `Oc1ccccc1C=NCCC[N-]CCCN=Cc1ccccc1O.[Co]`, the T/C [15] was 124 % of control and the T/C (dose: 100.0 mg/kg/injection, schedule: Q01DX010 (sc), vehicle: suspension in saline) was 79 % of control.

In the case of `CCC(CC)COC(=O)c1ccccc1C(=O)OCC(CC)CC`, the T/C [5] is reported as 56 % of control, the T/C [6] is reported as 71 % of control and the T/C [10] is reported as 64 % of control. The T/C [11] was 73 % of control.

With `CC(C)(C)C1CCCCC1` the T/C [7] was 94 % of control, the T/C [8] was 68 % of control and the T/C [9] was 59 % of control. For the same molecule, the T/C (dose: 2400.0 mg/kg/injection, schedule: Q04DX003 (sc), vehicle: Klucel (hydroxypropylcellulose) (HPC)) was 46 % of control.

`c1ccc2sc(SSN3CC4CCC(CC4)C3)nc2c1` was tested, and the T/C [1] was 81 % of control, the T/C [2] was 76 % of control and the T/C [3] was 48 % of control. For the same molecule, the T/C [4] was 50 % of control.

With `O=C1CN(CN2CCOCC2)C(=O)CN1CN1CCOCC1` the T/C [15] was 116 % of control and the T/C (dose: 200.0 mg/kg/injection, schedule: Q01DX010 (sc), vehicle: suspension in saline) was 156 % of control.

For `CN=S(=O)(OCCCCCOS(=O)(=NC)c1ccccc1)c1ccccc1` (stereo not drawn), the T/C [12] was 36 % of control, the T/C [13] was 77 % of control and the T/C [14] was 57 % of control.
